{"source": "patent US20120108538A1", "about": "“SULFATED POLYSACCHARIDES HAVING ANTIPLASMODIAL ACTIVITY AND METHODS AND PRODUCTS FOR IDENTIFYING ANTIPLASMODIAL ACTIVITY” (priority 2009, published 2012)", "key": {"[1]": {"test_system": "purified P. falciparum merozoites invading RBCs", "assay": "Invasion inhibition assay (IIA) using purified merozoites", "format": "cell-based, Plasmodium falciparum", "protocol": "Purified merozoites were mixed with uninfected RBCs and cultured using standard conditions in 96 well U-bottom plates at a final volume of 50 μl or 100 μl per well. Specific assay conditions were varied for different test conditions, as described in the Results section of the manuscript. Assays were typically performed under static conditions. Some assays were also performed with agitation of merozoite:RBC suspensions.\nTo test the activity of inhibitory compounds on invasion (Supporting Information Table 3), E64 treated schizonts were resuspended and filtered in culture medium without human serum. A typical merozoite invasion inhibition assay consisted of filtered merozoites (40 ul) added to RBC suspension (5 ul at […]; final concentration 1% hematocrit) and inhibitory compounds (5 ul at 10-times the final concentration required) in 96-well plates. Merozoite:RBCs suspensions containing inhibitors were incubated for one hour and then washed twice with culture medium to remove inhibitors, then resuspended in fresh culture media and incubated and analysed as for standard merozoite invasion assays. A number of compounds were also tested for inhibition of schizont rupture by incubating late stage schizonts (1-2% parasitaemia, 1% haematocrit in 50 ul) with a 1 in 10 dilution of compounds and monitoring the course of schizont rupture at 3 time points over an 8 hour period by flow cytometry."}, "MSP1-42 [2]": {"biological_target": "T1, MSP1-42 (Plasmodium falciparum, UniProt Q8I0U8)", "T1 sequence (Q8I0U8 1327-1699)": "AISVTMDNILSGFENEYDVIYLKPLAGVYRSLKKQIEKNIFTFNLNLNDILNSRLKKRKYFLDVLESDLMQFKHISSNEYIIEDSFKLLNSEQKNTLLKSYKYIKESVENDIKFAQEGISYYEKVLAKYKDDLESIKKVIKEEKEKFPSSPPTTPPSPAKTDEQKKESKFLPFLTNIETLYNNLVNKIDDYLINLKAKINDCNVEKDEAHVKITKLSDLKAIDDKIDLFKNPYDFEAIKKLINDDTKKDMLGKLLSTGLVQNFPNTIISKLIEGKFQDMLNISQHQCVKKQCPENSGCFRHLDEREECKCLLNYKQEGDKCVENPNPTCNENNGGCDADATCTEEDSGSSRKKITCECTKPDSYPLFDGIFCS", "assay": "Heparin-BSA binding assay", "design": "a C-terminal 42kDa (MSP1-42) fragment; made in house; host or cells: E. coli; species or system P. falciparum", "conditions": "soluble inhibitor", "protocol": "Recombinant merozoite antigens were coated (1 μg/mL) onto 96 well plates (Nunc Maxisorb) in HT-PBS overnight at 4° C. Plates were washed and blocked with 1% casein, 1 hr, room temperature. Plates were incubated with heparin-BSA conjugate with soluble inhibitors and detected with anti-BSA (rabbit) (Sigma-Aldrich) antibodies and anti-rabbit -HRP. Detection was performed with 2,2′-azino-bis(3-ethylbenzthiazoline-6-sulphonic acid) (Sigma-Aldrich) monitored for colour change and measured for absorbance at 405 nm. All incubations were performed in HT-PBS 0.1% casein 0:05% Tween20, 1 hr at room temperature. Plates were washed 3 times HT-PBS 0.05% Tween20 between incubations."}, "MSP1-42 [3]": {"biological_target": "T1, MSP1-42", "assay": "Binding of native merozoite proteins to heparin-agarose beads with soluble inhibitors", "design": "proteolytically processed into 83 kDa, 30 kDa, 38 kDa and a C-terminal 42kDa (MSP1-42) fragment; endogenous in cells; host or cells: P. falciparum schizont-stage cultures, Triton X-100 extract; species or system P. falciparum", "conditions": "soluble inhibitor 200 μg/mL", "source_text": "Synchronized schizont stage (40-48 hr, 5-8% parasitemia) cultures were used for protein extraction. Uninfected erythrocytes were lysed with 0.15% saponin (Kodak) on ice for ten minutes. Remaining pellets were washed three times with cold HT-PBS. Protein from schizonts was extracted with 5 times volume of 1% TritonX100 (TX100) (Sigma-Aldrich, Australia), HT-PBS with protease inhibitors (Roche). Insoluble components were pelleted by centrifugation and supernatants collected. Schizont TX100 extracted proteins were bound to heparin-agarose beads (Sigma-Aldrich, Australia) as previously described. Heparin-agarose beads were washed once with 1% casein in PBS, once in PBS, and then blocked with 1% casein in PBS overnight at 4° C. TX100 merozoite protein extracts where incubated with beads containing 0.1% casein and 200 μg/mL of test inhibitor, or PBS as control, overnight at 4° C.; 50 μL of packed beads and 100 μL protein and inhibitor were used or each test sample. Inhibitors used were heparin and CSC. Unbound proteins in the supernatant were collected through Micro Bio-Spin Chromatography Columns (Bio-Rad). After incubation, beads were washed five times with PBS containing 0.1% casein and 1% Triton X-100. Bound proteins were eluted from beads with 50 μL of warmed reducing sample buffer. Bound and unbound proteins were separated by SDS-PAGE under reducing conditions and blotted onto membranes for probing with antibody detection with anti-MSP1 or anti-EBA175. 36. Baum J, Chen L, Healer J, Lopaticki S, Boyle M, et al. (2009) Reticulocyte-binding protein homologue 5—an essential adhesin involved in invasion of human erythrocytes by Plasmodium falciparum: Int J Parasitol 39: 371-380."}}, "data": [{"substance": "Heparin", "values": [{"measurement": "inhibition of merozoite invasion in IIA", "setting": "[1]", "result": "effectively inhibited merozoite invasion"}, {"measurement": "inhibition of heparin-BSA binding to recombinant MSP1-42", "setting": "MSP1-42 [2]", "result": "inhibited in a concentration-dependent manner"}, {"measurement": "inhibition of native MSP1-42 binding to heparin-agarose beads", "setting": "MSP1-42 [3]", "result": "effectively inhibited"}]}]}
